Measurements as given in patent publication US20030203963A1, “Antimicrobial agent” (priority 2001, published 2003).

Experiments:
[1] = system: B. cereus 204; experiment: Bioscreen growth inhibition test; format: cell-based, Bacillus cereus; conditions: BS010411, 24 h at 30° C.
Experimental: (§1) For broth cultures and Bioscreen testing most bacteria were grown in Brain Heart Infusion (BHI, Oxoid, pH 7.4). Lactobacillus sake A10 was grown in de Man, Rogosa, Sharpe medium ([…], Oxoid). Yeasts were grown in Sabouraud Liquid medium (SLM, Oxoid). Most bacteria were cultured at 30° C. Lactic acid bacteria were grown on solid medium in enriched CO2 atmosphere. Clostridium species were grown in Reinforced Clostridial Medium (RCM) at 37° C. anaerobically. Brochothrix thermosphacta fungi and yeasts were grown at 25° C. Fungi were cultured on Malt Extract Agar (MEA, Oxoid).
(§2) An automated Microbiology Reader Bioscreen C was used to measure growth curves of the strains in the presence and absence of APP. The Bioscreen C measures the development of turbidity (i.e. growth) kinetically by vertical photometry in 200 wells of a honeycomb microtitre plate, simultaneously. The system consists of a Bioscreen C analyser, which is an incubator and measurement unit, integrated with a PC, software (BioLink v 5.30), printer and a ‘Honeycomb 2’ cuvette multiwell plate. Growth curve data can be analysed within the BioLink software or exported to programs such as Excel.
(§3) Broth culture media were dispensed in 270 μl volumes into the wells as directed. Serial dilutions of a filter-sterilised APP stock solution were then dispensed into the same wells, as appropriate. The wells were inoculated with 30 μl of an appropriately diluted overnight broth culture or spore suspension, to give a final inoculum level of […]. The tests were incubated in the Bioscreen C for either 24 h at 30° C., or 72 h at 25° C. (depending on the micro-organism under investigation) with readings taken every 20 minutes after the trays were shaken. After the incubation period was complete the data were exported to Excel for analysis.

[2] = system: B. cereus 3.046; experiment: Bioscreen growth inhibition test; format: cell-based, Bacillus cereus; conditions: BS010510, 24 h at 30° C., APP20010213
Experimental: as §1, §2, §3

[3] = system: B. cereus Campden; experiment: Bioscreen growth inhibition test; format: cell-based, Bacillus cereus; conditions: BS010411, 24 h at 30° C.
Experimental: as §1, §2, §3

[4] = system: B. subtilis Campden; experiment: Bioscreen growth inhibition test; format: cell-based, Bacillus subtilis; conditions: BS010510, 24 h at 30° C., APP20010213
Experimental: as §1, §2
(§4) Broth culture media were dispensed in 270 μl volumes into the wells as directed. […] (depending on the micro-organism under investigation) with readings taken every 20 minutes after the trays were shaken. […]

[5] = system: Lb. sake A10; experiment: Bioscreen growth inhibition test; format: cell-based, Lactobacillus sake; conditions: for APP level causing significant inhibition / APP level causing total inhibition: BS010411, 24 h at 30° C.
Experimental: as §1, §2, §3

[6] = system: Salmonella sp. S19; experiment: Bioscreen growth inhibition test; format: cell-based; conditions: BS010510, 24 h/30, APP20010213
Experimental: as §1, §2, §4

[7] = system: S cerevisiae var. paradoxus H103; experiment: Bioscreen growth inhibition test; format: cell-based, Saccharomyces cerevisiae var. paradoxus; conditions: APP 213, BS010420, 72 h/25° C.
Experimental: as §1, §2, §4

[8] = system: L. monocytogenes S23; experiment: In vitro cidal experiment; format: cell-based, Listeria monocytogenes; conditions: ambient temperature
Experimental: 100 μl of SDW (sterile deionised water) or APP sample E002012 was added to 890 μl 10 mM HEPES buffer (pH 7). […] After this time the bacteria were enumerated by viable count. The concentration of the APP sample was 24.7 μg/ml.

[9] = system: L monocytogenes S23; experiment: Chicken soup trial at 8° C.; format: cell-based, Listeria monocytogenes; conditions: chicken soup at 8° C., TCSM010521, APP215
Source text: A local supermarket brand of cream of chicken soup was used as a model food system. 600 g packs were purchased from the local supermarket. This was a ‘fresh home-made type’ of soup that was stored in the chill cabinet, with a short shelf life. It was chosen because it is a rich, nutritious food system containing a range of food components including meat, dairy and vegetable.
Ingredients were labelled as: chicken stock (water, duck fat, chicken, salt, flavourings, yeast extracts, pork gelatine, glucose syrup, vegetable concentrate, milk protein, sugar, malto-dextrin, vegetable oil, citric acid, lactose, chicken fat), ilk, chicken (9%), cream (8%), onion, potato, vegetable oil, modified maize starch, wheat flour, lemon juice, salt, white pepper. pH 5.912. Protein: 3.3%; carbohydrate: 4.7%; fat: 7.2%; fibre: 0.2%; sodium: 0.1%
For the test the soup was mixed 2:1 in water (to facilitate sampling and mixing) and sterilised by autoclaving at 121° C. for 15 minutes. For each experiment the pH of the soup was recorded; this was between pH 5.79-5.88.
For TCS010521/8 (incubated at 8° C.), samples were prepared in 27.8 g quantities. 1.5 g of an APP stock solution was added, and the tests inoculated with 0.3 ml of a suitably diluted cell or spore suspension to give a final inoculum of ca. 10^3 cfu/g. APP was tested at 0, 500 and 1000 ppm, and batch number APP20010213 (at 169 mg/ml) was used. The tests were sampled by viable count and then incubated at 8° C. and tested on a twice-weekly basis.

[10] = system: Ps. fluorescens; experiment: Test in milk; format: cell-based, Pseudomonas fluorescens; conditions: for Control for: 2000 ppm, TMGB010605
Experimental: 8.9 ml samples of UHT milk containing 0.5% glucose and the indicator bromocresol purple (0.01%) were prepared and sterilised by autoclaving. The pH before APP addition was pH 6.65. Appropriate stock solutions of APP batch number APP20010215 (at 138 mg/ml) were prepared and filter sterilised. 1 ml of each was added to the milk to prepare tests containing 0, 1000 and 2000 ppm APP. Tests were then inoculated with 100 μl of diluted overnight broth cultures or spore suspensions to give a final inoculum level of ca. 10^3 cfu/ml. These and uninoculated tests were incubated at 20 and 8° C. and examined daily for visible changes compared to uninoculated control.

[11] = Stability in water; format: physicochemical; conditions: water at 24° C.
Experimental: Tests indicate that APP is stable in water at 24° C. for 2 weeks, but completely disappears after 2 months. […] At pH 11-12.5 APP has a half-life of 5 h. Since most food is acidic or neutral, the stability may therefore be improved by using APP in combination with an antioxidant such as those listed hereinbefore.

In the case of O=C1CC(CO)OC=C1O (stereo not shown) [APP, Ascopyrone P], the “APP level causing significant inhibition” value ([1]; APP20010213) is reported as 4000 ppm, the “APP level causing total inhibition” value ([1]; APP20010213) is reported as >4000 ppm and the “APP level causing significant inhibition” value ([1]; APP20010215) is reported as 2000 ppm. The “APP level causing total inhibition” value ([1]; APP20010215) was 4000 ppm, the “APP level causing significant inhibition” value [2] was 2000 ppm and the “APP level causing total inhibition” value [2] was 3000 ppm. The “APP level causing significant inhibition” value ([3]; APP20010213) was 2000 ppm, the “APP level causing total inhibition” value ([3]; APP20010213) was 4000 ppm and the “APP level causing significant inhibition” value ([3]; APP20010215) was 2000 ppm. For the same compound, the “APP level causing total inhibition” value ([3]; APP20010215) was >4000 ppm, the “APP level causing significant inhibition” value [4] was 2000 ppm and the “APP level causing total inhibition” value [4] was 3000 ppm. For the same compound, the “APP level causing significant inhibition” value ([5]; APP20010213) was 250 ppm, the “APP level causing total inhibition” value ([5]; APP20010213) was 500 ppm and the “APP level causing significant inhibition” value ([5]; APP20010215) was 250 ppm. For the same compound, the “APP level causing total inhibition” value ([5]; APP20010215) was 500 ppm, the “Total inhibition (effect on growth of target organism by 2000 ppm APP)” value ([5]; Lab media at optimum temperature) was “Lb. sake” and the “APP level causing total inhibition” value [6] was 4000 ppm. For the same compound, the “APP level causing significant inhibition” value [7] was 2000, the “APP level causing total inhibition” value [7] was >4000 and the “Viable count after 2 h incubation” value ([8]; 24.7 μg/ml APP E002012, 10 mM HEPES buffer (pH 7)) was 1.3 × 10^7. For the same compound, the “Listeria counts after 2 h incubation” value ([8]; 24.7 μg/ml APP, buffer) was “remained steady”, the “Effect on growth rate” value ([9]; 500 ppm) was “Slight reduction of growth rate with 500 and 1000 ppm” and the Effect on growth ([9]; 1000 ppm) was “No total inhibition by 1000 ppm”. The “Effect on growth rate” value ([9]; 1000 ppm) was “Slight reduction of growth rate with 500 and 1000 ppm”, the “Control for” value ([10]; milk at 8° C.) was > 7 days and the “Control for” value ([10]; milk at 20° C.) was 2 to 3 days. The “Total inhibition (effect on growth of target organism by 2000 ppm APP)” value ([10]; Milk at 8° C. pH 6.65) was “Ps. fluorescens”, the “Partial inhibition (effect on growth of target organism by 2000 ppm APP)” value ([10]; Milk at 20° C. pH 6.65) was “Ps. fluorescens” and the Completely disappears after [11] was 2 months. The “Stable in water for” value [11] was 2 weeks.
